Test results published in the NIST ThermoML archive (doi:10.1016/j.fluid.2015.10.026).

Details: Brillouin light scattering

CCOC(C)(C)C [2-ethoxy-2-methylpropane]
Details | speed of sound [m/s]
433.15 K, 920 kPa, Liquid | 454.82
433.15 K, 2500 kPa, Liquid | 483.99
433.15 K, 4000 kPa, Liquid | 513.28
433.15 K, 5500 kPa, Liquid | 541.29
433.15 K, 7000 kPa, Liquid | 568
433.15 K, 8500 kPa, Liquid | 593.43
433.15 K, 10000 kPa, Liquid | 617.57
443.15 K, 1150 kPa, Liquid | 409.25
443.15 K, 2500 kPa, Liquid | 440.1
443.15 K, 4000 kPa, Liquid | 471.64
443.15 K, 5500 kPa, Liquid | 501.8
443.15 K, 7000 kPa, Liquid | 530.58
443.15 K, 8500 kPa, Liquid | 557.97
443.15 K, 10000 kPa, Liquid | 583.97
453.15 K, 1420 kPa, Gas | 157.35
453.15 K, 1420 kPa, Liquid | 361.97
453.15 K, 2500 kPa, Liquid | 395.94
453.15 K, 4000 kPa, Liquid | 429.85
453.15 K, 5500 kPa, Liquid | 462.29
453.15 K, 7000 kPa, Liquid | 493.25
453.15 K, 8500 kPa, Liquid | 522.72
453.15 K, 10000 kPa, Liquid | 550.71
463.15 K, 1750 kPa, Gas | 149.62
463.15 K, 1750 kPa, Liquid | 312.51
463.15 K, 2500 kPa, Liquid | 351.51
463.15 K, 4000 kPa, Liquid | 387.92
463.15 K, 5500 kPa, Liquid | 422.75
463.15 K, 7000 kPa, Liquid | 456
463.15 K, 10000 kPa, Liquid | 517.77
473.15 K, 2130 kPa, Gas | 140.63
473.15 K, 2130 kPa, Liquid | 260.24
473.15 K, 4000 kPa, Liquid | 345.84
473.15 K, 5500 kPa, Liquid | 383.18
473.15 K, 7000 kPa, Liquid | 418.85
473.15 K, 8500 kPa, Liquid | 452.84
473.15 K, 10000 kPa, Liquid | 485.16
478.15 K, 2340 kPa, Gas | 135.58
483.15 K, 2570 kPa, Gas | 130.09
483.15 K, 2570 kPa, Liquid | 204.36
483.15 K, 4000 kPa, Liquid | 303.61
483.15 K, 5500 kPa, Liquid | 343.59
488.15 K, 2820 kPa, Gas | 123.95
488.15 K, 2820 kPa, Liquid | 174.7
493.15 K, 3090 kPa, Gas | 116.68
493.15 K, 3090 kPa, Liquid | 143.64
493.15 K, 4000 kPa, Liquid | 261.23
493.15 K, 5500 kPa, Liquid | 303.97
511.02 K, 5000 kPa, Fluid (supercritical or subcritical phases) | 203.94
511.07 K, 6000 kPa, Fluid (supercritical or subcritical phases) | 251.63
511.12 K, 7000 kPa, Fluid (supercritical or subcritical phases) | 292.44
511.26 K, 4000 kPa, Fluid (supercritical or subcritical phases) | 109.41
520.05 K, 4000 kPa, Fluid (supercritical or subcritical phases) | 104.01
521 K, 5000 kPa, Fluid (supercritical or subcritical phases) | 155.15
521.16 K, 6000 kPa, Fluid (supercritical or subcritical phases) | 217.02
521.29 K, 7000 kPa, Fluid (supercritical or subcritical phases) | 264.62
529.5 K, 4000 kPa, Fluid (supercritical or subcritical phases) | 118.19
530.2 K, 5000 kPa, Fluid (supercritical or subcritical phases) | 132.08
530.73 K, 6000 kPa, Fluid (supercritical or subcritical phases) | 183.76
530.99 K, 7000 kPa, Fluid (supercritical or subcritical phases) | 234.87
540.45 K, 4000 kPa, Fluid (supercritical or subcritical phases) | 134.27
541.14 K, 5000 kPa, Fluid (supercritical or subcritical phases) | 128.78
541.48 K, 6000 kPa, Fluid (supercritical or subcritical phases) | 158.8
541.85 K, 7000 kPa, Fluid (supercritical or subcritical phases) | 208.25
550 K, 5000 kPa, Fluid (supercritical or subcritical phases) | 134.46
550.06 K, 4000 kPa, Fluid (supercritical or subcritical phases) | 147.6
550.44 K, 6000 kPa, Fluid (supercritical or subcritical phases) | 144.68
550.58 K, 7000 kPa, Fluid (supercritical or subcritical phases) | 188.75
561.04 K, 4000 kPa, Fluid (supercritical or subcritical phases) | 161.59
561.29 K, 5000 kPa, Fluid (supercritical or subcritical phases) | 145.73
561.65 K, 6000 kPa, Fluid (supercritical or subcritical phases) | 145.52
561.96 K, 7000 kPa, Fluid (supercritical or subcritical phases) | 176.1
571.2 K, 6000 kPa, Fluid (supercritical or subcritical phases) | 152.92
571.28 K, 7000 kPa, Fluid (supercritical or subcritical phases) | 169.79
571.33 K, 5000 kPa, Fluid (supercritical or subcritical phases) | 158.34
571.72 K, 4000 kPa, Fluid (supercritical or subcritical phases) | 172.96
579.57 K, 7000 kPa, Fluid (supercritical or subcritical phases) | 169.78
579.66 K, 6000 kPa, Fluid (supercritical or subcritical phases) | 163.68
579.91 K, 5000 kPa, Fluid (supercritical or subcritical phases) | 170.18
580.22 K, 4000 kPa, Fluid (supercritical or subcritical phases) | 182.55
590.12 K, 4000 kPa, Fluid (supercritical or subcritical phases) | 194.12
590.27 K, 7000 kPa, Fluid (supercritical or subcritical phases) | 175.32
590.38 K, 5000 kPa, Fluid (supercritical or subcritical phases) | 185.11
590.39 K, 6000 kPa, Fluid (supercritical or subcritical phases) | 178.89
601.53 K, 7000 kPa, Fluid (supercritical or subcritical phases) | 188.12
601.7 K, 6000 kPa, Fluid (supercritical or subcritical phases) | 193.21
602.16 K, 5000 kPa, Fluid (supercritical or subcritical phases) | 199.29
602.86 K, 4000 kPa, Fluid (supercritical or subcritical phases) | 207.43
611.06 K, 7000 kPa, Fluid (supercritical or subcritical phases) | 202.27
611.36 K, 6000 kPa, Fluid (supercritical or subcritical phases) | 206.2
611.87 K, 5000 kPa, Fluid (supercritical or subcritical phases) | 211.58
612.81 K, 4000 kPa, Fluid (supercritical or subcritical phases) | 217.85
622.53 K, 7000 kPa, Fluid (supercritical or subcritical phases) | 213.01
622.84 K, 6000 kPa, Fluid (supercritical or subcritical phases) | 217.4
623.38 K, 5000 kPa, Fluid (supercritical or subcritical phases) | 222.38
623.94 K, 4000 kPa, Fluid (supercritical or subcritical phases) | 226.9
631.83 K, 7000 kPa, Fluid (supercritical or subcritical phases) | 218.09
632.32 K, 6000 kPa, Fluid (supercritical or subcritical phases) | 223.19
633.27 K, 5000 kPa, Fluid (supercritical or subcritical phases) | 228.01
634.19 K, 4000 kPa, Fluid (supercritical or subcritical phases) | 232.56
643.79 K, 7000 kPa, Fluid (supercritical or subcritical phases) | 224.46
643.86 K, 6000 kPa, Fluid (supercritical or subcritical phases) | 228.16
644.48 K, 5000 kPa, Fluid (supercritical or subcritical phases) | 232.66
645.27 K, 4000 kPa, Fluid (supercritical or subcritical phases) | 236.85
653.83 K, 6000 kPa, Fluid (supercritical or subcritical phases) | 231.78
653.89 K, 7000 kPa, Fluid (supercritical or subcritical phases) | 228.08
654.31 K, 5000 kPa, Fluid (supercritical or subcritical phases) | 235.93
654.75 K, 4000 kPa, Fluid (supercritical or subcritical phases) | 239.86
665 K, 6000 kPa, Fluid (supercritical or subcritical phases) | 234.24
665.08 K, 4000 kPa, Fluid (supercritical or subcritical phases) | 242.03
665.1 K, 5000 kPa, Fluid (supercritical or subcritical phases) | 237.76
665.1 K, 7000 kPa, Fluid (supercritical or subcritical phases) | 230.39
